Laboratory results published in US5350864A, “Aminoalkylcarbamyl derivatives of forskolin as intermediates for the synthesis of useful forskolin derivatives” (The United States of America as represented by the …, priority 1990, dated 1994).
Entries after “also recorded” stand apart in the source; their conditions may differ. Like-named read-outs stand apart in the source and are kept apart here.

Key:
P-glycoprotein [1] = biological target: T1, P-glycoprotein (Homo sapiens, UniProt P08183)
adenylate cyclase [2] = assay: Photolabelling of bovine brain membranes, SDS gel electrophoresis; type: binding
Method: (§1) Derivative 20 (6-AIPPS-Fsk) is incubated with partially purified preparations of bovine brain adenylate cyclase, photolyzed, and then the radioactive proteins are analyzed by SDS gel electrophoresis. […] 6-AIPPS-Fsk can also label adenylate cyclase in crude membranes. 6-AIPPS-Fsk is incubated with bovine brain membranes, photolyzed, and the radioactive proteins are analyzed by SDS gel electrophoresis.

glucose transporter [3] = details: cited from earlier work
adenylate cyclase [4] = details: literature, cited from earlier work
adenylate cyclase [5] = assay: Filtration binding assay, ^125 I-labelled derivative 19 (6-^125 I-HPP-Fsk) to bovine brain membranes; details: for inhibition of 6-^125 I-HPP-Fsk binding: 60 min
Description: (§2) Derivative 19 (6-^125 I-HPP-Fsk) was used to develop a binding assay for adenylate cyclase (Example 4). […] Therefore, a filtration assay can be used to separate the bound from free ligand and determine the amount of high affinity binding. […] Analogs of forskolin that activate adenylate cyclase inhibit the binding of 6-^125 I-HPP-Fsk to membranes. The ability of an agent to inhibit 6-^125 I-HPP-Fsk binding to membranes is therefore indicative of its ability to stimulate adenylate cyclase.
Binding of 6-^125 I-HPP-Fsk to Membranes--Crude membranes from bovine brain were incubated for 60 minutes at […] 20° C. with 20,000 cpm of 6-^125 I-HPP-Fsk. Binding equilibrium was reached by 45 minutes and was constant for at least 2 hours (data not shown). The incubations were carried out at 20° C. for 60 minutes in 12×75 glass test tubes in a total volume of 0.4 mL […] Tris-HCl buffer, pH 7.4. The membranes (0.40 mg/tube) were incubated in the presence of 5 mM MgCl2 and 10 mM NaF. The assay was terminated by the addition of 5 mL of cold Tris-HCl buffer to the tubes and rapid filtration over Whatman GF/C filters using a Brandel cell harvester. The assay was terminated as described above and the filters counted in a gamma counter. The nonspecific binding was calculated as the amount of label not displaced by 20 uM forskolin. The non specific binding was about 20% of the total bound.

cancer cells = details: certain cancer cells; literature; cited from earlier work
P-glycoprotein [6] = assay: Binding to the P-glycoprotein
[7] = literature; cited from earlier work
adenylate cyclase [8] = assay: Photolabelling of partially purified bovine brain adenylate cyclase, SDS gel electrophoresis; type: binding
Method: as §1

glucose transporter [9] = biological target: T2, glucose transporter (Homo sapiens, UniProt P11166); assay: Filtration binding assay, ^125 I-labelled derivative 8 (7-^125 I-HPP-Fsk) to human red blood cell membranes; details: for inhibition of 7-^125 I-HPP-Fsk binding: human red blood cell membranes
T2 construct: Crude membranes from human red blood cells; from tissue; host or cells: human red blood cells, membranes
T2 sequence (P11166 1-492): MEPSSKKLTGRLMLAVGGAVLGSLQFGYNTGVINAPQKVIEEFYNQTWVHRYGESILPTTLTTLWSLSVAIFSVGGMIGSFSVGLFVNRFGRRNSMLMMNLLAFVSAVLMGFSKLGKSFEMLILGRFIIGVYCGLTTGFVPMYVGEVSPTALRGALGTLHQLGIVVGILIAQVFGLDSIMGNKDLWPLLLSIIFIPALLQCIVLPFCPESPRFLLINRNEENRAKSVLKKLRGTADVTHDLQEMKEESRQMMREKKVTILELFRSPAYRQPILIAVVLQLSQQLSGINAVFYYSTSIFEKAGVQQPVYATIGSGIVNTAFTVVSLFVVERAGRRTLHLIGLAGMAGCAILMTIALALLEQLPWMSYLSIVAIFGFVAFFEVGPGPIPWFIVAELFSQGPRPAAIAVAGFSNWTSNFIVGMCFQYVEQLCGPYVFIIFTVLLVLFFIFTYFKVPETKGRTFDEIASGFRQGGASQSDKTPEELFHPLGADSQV
Method: Binding of 7-^125 IHPP-Fsk to Membranes--Crude membranes from human red blood cells were incubated for 60 minutes at 20° C. with 20,000 cpm of 7-^125 IHPP-Fsk. […] The incubations were carried out at 20° C. for 60 minutes in 12×75 glass test tubes in a total volume of 0.4 mL 50 mM Tris-HCl buffer, pH 7.4. The assay was terminated by the addition of 4 mL of cold Tris-HCl buffer to the tubes at rapid filtration over Whatman GF/C filters using a Brandel cell harvester. The assay was terminated as described above and the filters counted in a gamma counter. The nonspecific binding was calculated as the amount of label not displaced by 20 μM forskolin.

Water solubility = type: physicochemical; details: relative to forskolin
[10] = tested on: bovine brain adenylate cyclase; assay: Activation of bovine brain adenylate cyclase; type: biochemical; details: relative to forskolin
[11] = Stability to heating in base; type: physicochemical; details: heating in 0.1N KOH in methanol, two hours, 60° C.
Method: The 7-aminoethylcarbamate can be synthesized using the 1,9-dimethylformamide acetal of 7-desacetylforskolin as starting material (see synthetic scheme of FIG. 2). The selective reactivity of carbonyldiimidazole (CDI) with the equatorial 7β-hydroxyl group is exploited to form the 7-acylimidazole intermediate. The reaction of the 7-acylimidazole intermediate with ethylenediamine produces the 7-aminoethylcarbamate of forskolin (see 3 in FIG. 1 and Example 1). The same procedure is carried out to produce 7β-aminobutylcarbamate (5), 7β-aminohexylcarbamate (6), and the 7β-aminoheptylcarbamate (7) of forskolin. The 7β-aminoalkylcarbamates of forskolin are very stable compounds. The 7β-aminoethylcarbamate of forskolin is stable to heating in 0.1N KOH in methanol for two hours at 60° C.

adenylate cyclase [12] = assay: Binding of 6-^125 I-HPP-Fsk to membranes from human platelets
Description: as §2

P-glycoprotein [13] = biological target: T1, P-glycoprotein; assay: Photolabelling of membranes from human ovarian carcinoma cell line overexpressing P-glycoprotein
glucose transporter [14] = biological target: T2, glucose transporter; assay: Photolabelling of human red blood cell membranes, SDS gel electrophoresis; type: binding
Method: Derivative 9 (7-AIPPS-Fsk) is incubated with human red blood cell membranes, photolyzed, and then the radioactive proteins were analyzed by SDS gel electrophoresis.

glucose transporter [15] = assay: Binding of 7-^125 I-HPP-Fsk to rat muscle
Description: (§3) 7-^125 I-HPP-Fsk also binds with high affinity to other tissues including bovine brain, rat heart, rat muscle, and human platelets. The binding of 7-^125 I-HPP-Fsk to these tissues is inhibited by D-glucose and cytochalasin B. Therefore, 7-^125 I-HPP-Fsk binds with high affinity to the glucose transporter in diverse tissues.

glucose transporter [16] = assay: Binding of 7-^125 I-HPP-Fsk to rat heart
Description: as §3

glucose transporter [17] = details: read-out: affinity of cytochalasin B; cited from earlier work
glucose transporter [18] = biological target: T3, glucose transporter (Homo sapiens, UniProt P11169); assay: Binding of 7-^125 I-HPP-Fsk to human platelets
T3 construct: other tissues including bovine brain, rat heart, rat muscle, and human platelets; from tissue; host or cells: human platelets
T3 sequence (P11169 1-496): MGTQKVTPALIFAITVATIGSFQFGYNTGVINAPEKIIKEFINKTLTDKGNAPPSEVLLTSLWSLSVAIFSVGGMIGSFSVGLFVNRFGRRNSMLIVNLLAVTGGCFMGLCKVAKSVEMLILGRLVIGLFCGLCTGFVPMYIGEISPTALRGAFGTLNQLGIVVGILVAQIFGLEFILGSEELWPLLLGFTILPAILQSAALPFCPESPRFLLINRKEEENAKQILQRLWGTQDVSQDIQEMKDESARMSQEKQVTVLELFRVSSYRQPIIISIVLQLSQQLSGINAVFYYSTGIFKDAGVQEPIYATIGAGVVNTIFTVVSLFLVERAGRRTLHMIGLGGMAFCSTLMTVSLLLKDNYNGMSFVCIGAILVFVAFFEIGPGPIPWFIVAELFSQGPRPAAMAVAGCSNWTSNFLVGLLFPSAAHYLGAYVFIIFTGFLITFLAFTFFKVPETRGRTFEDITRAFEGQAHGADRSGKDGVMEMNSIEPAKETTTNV
Description: as §3

glucose transporter [19] = assay: Binding of 7-^125 I-HPP-Fsk to bovine brain
Description: as §3

T1 sequence (P08183 whole entry): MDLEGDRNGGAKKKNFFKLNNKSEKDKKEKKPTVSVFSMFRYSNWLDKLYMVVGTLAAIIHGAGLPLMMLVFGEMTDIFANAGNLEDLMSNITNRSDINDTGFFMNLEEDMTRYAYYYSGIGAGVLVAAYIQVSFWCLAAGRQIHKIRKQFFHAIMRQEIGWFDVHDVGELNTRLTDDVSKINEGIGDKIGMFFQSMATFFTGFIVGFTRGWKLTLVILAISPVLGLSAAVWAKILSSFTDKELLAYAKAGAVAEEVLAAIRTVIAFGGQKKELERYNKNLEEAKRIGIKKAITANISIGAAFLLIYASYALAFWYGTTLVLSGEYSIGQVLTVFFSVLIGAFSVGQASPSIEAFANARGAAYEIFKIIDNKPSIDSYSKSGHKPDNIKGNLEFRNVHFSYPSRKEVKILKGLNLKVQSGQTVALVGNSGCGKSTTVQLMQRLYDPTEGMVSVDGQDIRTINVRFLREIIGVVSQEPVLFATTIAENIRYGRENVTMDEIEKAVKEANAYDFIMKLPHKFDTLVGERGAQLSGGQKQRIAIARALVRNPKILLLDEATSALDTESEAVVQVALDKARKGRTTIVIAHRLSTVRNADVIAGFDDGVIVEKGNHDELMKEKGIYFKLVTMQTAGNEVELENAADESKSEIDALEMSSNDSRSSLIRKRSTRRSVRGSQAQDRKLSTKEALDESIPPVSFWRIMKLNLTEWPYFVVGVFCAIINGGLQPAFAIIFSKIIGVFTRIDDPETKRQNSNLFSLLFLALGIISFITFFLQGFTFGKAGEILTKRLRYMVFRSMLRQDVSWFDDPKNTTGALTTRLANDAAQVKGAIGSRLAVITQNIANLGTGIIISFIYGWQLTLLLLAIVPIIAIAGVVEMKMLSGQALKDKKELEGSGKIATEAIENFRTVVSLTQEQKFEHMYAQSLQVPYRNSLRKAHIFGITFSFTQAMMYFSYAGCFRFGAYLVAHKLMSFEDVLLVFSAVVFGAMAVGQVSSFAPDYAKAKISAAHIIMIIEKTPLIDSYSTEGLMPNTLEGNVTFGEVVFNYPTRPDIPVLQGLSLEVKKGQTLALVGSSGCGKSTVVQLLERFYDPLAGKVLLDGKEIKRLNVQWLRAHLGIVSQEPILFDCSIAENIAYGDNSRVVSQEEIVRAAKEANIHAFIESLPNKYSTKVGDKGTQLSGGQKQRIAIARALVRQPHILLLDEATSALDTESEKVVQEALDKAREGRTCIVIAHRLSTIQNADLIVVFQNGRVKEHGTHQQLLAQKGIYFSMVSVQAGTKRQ

## C=C[C@@]1(C)CC(=O)[C@@H]2[C@@]3(C)CCCC(C)(C)[C@@H]3[C@H](O)[C@H](OC(C)=O)[C@@]2(C)O1 [1,9-dideoxyforskolin]
P-glycoprotein [1]
  inhibition of labelling by 6-AIPPS-Fsk: more potent at inhibiting the labelling by 6-AIPPS-Fsk than forskolin
Adenylate cyclase [2]
  inhibition of labelling by 6-AIPPS-Fsk: not inhibited
Glucose transporter [3]; adipocyte membranes, literature
  inhibition of glucose transport: inhibit glucose transport in adipocyte membranes
Adenylate cyclase [4]
  activation of adenylate cyclase: inability
Adenylate cyclase [4]; listed as 1,9-Dideoxyforskolin
  activation of adenylate cyclase: does not activate adenylate cyclase; also recorded: not active at adenylate cyclase
Adenylate cyclase [5]; bovine brain membranes, 20° C.
  inhibition of 6-^125 I-HPP-Fsk binding: not by 1,9-dideoxyforskolin
Cancer cells
  sensitization to cytotoxic effects of drugs: can sensitize certain cancer cells to the cytotoxic effects of drugs

## C=C[C@@]1(C)CC(=O)[C@]2(O)[C@@]3(C)[C@@H](O)CCC(C)(C)[C@@H]3[C@H](O)[C@H](OC(C)=O)[C@@]2(C)O1 [Compound 1, forskolin]
P-glycoprotein [6]
  binding to P-glycoprotein: bind to the P-glycoprotein
Glucose transporter [3]; relative to adenylate cyclase activation
  potency at activating adenylate cyclase versus inhibiting glucose transport: equipotent
[7]
  cardiotonic effects: marked cardiotonic effects
Adenylate cyclase [8]
  inhibition of labelling by 6-AIPPS-Fsk: inhibited
Glucose transporter [9]
  binding affinity / selectivity: binds to the glucose transporter in human red blood cells
  inhibition of 7-^125 I-HPP-Fsk binding: inhibited
Adenylate cyclase [4]
  activation of adenylate cyclase: activate the enzyme adenylate cyclase and increase intracellular cyclic AMP
Adenylate cyclase [5]; bovine brain membranes, 20° C.
  inhibition of 6-^125 I-HPP-Fsk binding: inhibited
Cancer cells
  sensitization to cytotoxic effects of drugs: can sensitize certain cancer cells to the cytotoxic effects of drugs

## C=C[C@@]1(C)CC(=O)[C@]2(O)[C@@]3(C)[C@@H](O)CCC(C)(C)[C@@H]3[C@H](O)[C@H](OC(=O)NCCN)[C@@]2(C)O1 [Compound 3, 7-aminoethyl-carbamylforskolin]
Water solubility
  water solubility: enhanced water solubility
[10]
  extent of stimulation of adenylate cyclase: stimulate adenylate cyclase to a greater extent than forskolin
Glucose transporter [9]; erythrocyte membranes
  potency relative to 6-aminoethylcarbamyl derivative 4 at inhibiting binding of 7-^125 I-HPP-Fsk: about 30 fold
[11]
  stability: stable

## C=C[C@@]1(C)CC(=O)[C@]2(O)[C@@]3(C)[C@@H](O)CCC(C)(C)[C@@H]3[C@H](OC(=O)NCCNC(=O)CCc3ccc(O)c([125I])c3)[C@H](OC(C)=O)[C@@]2(C)O1 [Derivative 19]
Adenylate cyclase [5]; 20° C.
  time binding was constant: at least 2 hours
  time to binding equilibrium: ≤ 45 min
Adenylate cyclase [5]; adenylate cyclase versus glucose transporter, listed as 6-^125 I-HPP-Fsk
  selectivity of 6-^125 I-HPP-Fsk binding: not binding with high affinity to the glucose transporter in brain tissue; also recorded: specific for adenylate cyclase
Adenylate cyclase [5]; bovine brain membranes
  binding affinity: high affinity
Adenylate cyclase [5]; membranes from bovine brain
  Kd: ~25 nM
Adenylate cyclase [12]
  Kd: ~25 nM

## COc1cccc2c1C(=O)c1c(O)c3c(c(O)c1C2=O)C[C@@](O)(C(=O)CO)C[C@@H]3O[C@H]1C[C@H](N)[C@H](O)[C@H](C)O1 [adriamycin]
P-glycoprotein [13]
  inhibition of labelling by 6-AIPPS-Fsk: inhibited

## C=C1C(C)C2C(Cc3ccccc3)NC(=O)C23OC(=O)/C=C/C(O)CCCC(C)C/C=C/C3C1O (stereo not drawn) [cytochalasin B]
Glucose transporter [14]
  inhibition of labelling by 7-AIPPS-Fsk: inhibited
Glucose transporter [15]
  inhibition of 7-^125 I-HPP-Fsk binding: inhibited
Glucose transporter [16]
  inhibition of 7-^125 I-HPP-Fsk binding: inhibited
Glucose transporter [17]
  Kd: ~1000 nM
Glucose transporter [18]
  inhibition of 7-^125 I-HPP-Fsk binding: inhibited
Glucose transporter [9]
  inhibition of 7-^125 I-HPP-Fsk binding: inhibition of binding; also recorded: inhibited
Glucose transporter [9]; listed as cytochlasin B
  inhibition of 7-^125 I-HPP-Fsk binding: inhibited
Adenylate cyclase [5]; bovine brain membranes, 20° C.
  inhibition of 6-^125 I-HPP-Fsk binding: not inhibited
Glucose transporter [19]
  inhibition of 7-^125 I-HPP-Fsk binding: inhibited
